Assay: xn = mol fraction of the nth substance listed
Details: 101 kPa, Liquid, Vibrating tube method

CC1COC(=O)O1 (configuration not stated) [4-methyl-1,3-dioxolan-2-one] + Cc1ccccc1
Details | mass density [kg/m3]
293.15 K, x2 = 0 | 1200.3
293.15 K, x2 = 0.0578 | 1177.7
293.15 K, x2 = 0.1279 | 1151
293.15 K, x2 = 0.1735 | 1133.9
293.15 K, x2 = 0.2387 | 1110
293.15 K, x2 = 0.3248 | 1079.4
293.15 K, x2 = 0.3891 | 1057.1
293.15 K, x2 = 0.4398 | 1039.9
293.15 K, x2 = 0.5179 | 1014
293.15 K, x2 = 0.5621 | 999.7
293.15 K, x2 = 0.6381 | 975.4
293.15 K, x2 = 0.7139 | 951.8
293.15 K, x2 = 0.7639 | 936.5
293.15 K, x2 = 0.8247 | 918.2
293.15 K, x2 = 0.8739 | 903.6
293.15 K, x2 = 0.9376 | 884.9
303.15 K, x2 = 0 | 1180.6
303.15 K, x2 = 0.0516 | 1161
303.15 K, x2 = 0.1211 | 1135.3
303.15 K, x2 = 0.1782 | 1114.7
303.15 K, x2 = 0.2298 | 1096.4
303.15 K, x2 = 0.2971 | 1073
303.15 K, x2 = 0.3565 | 1052.9
303.15 K, x2 = 0.4134 | 1034
303.15 K, x2 = 0.4681 | 1016.2
303.15 K, x2 = 0.5371 | 994.2
303.15 K, x2 = 0.6021 | 973.9
303.15 K, x2 = 0.6629 | 955.4
303.15 K, x2 = 0.7232 | 937.2
303.15 K, x2 = 0.7832 | 919.5
303.15 K, x2 = 0.8537 | 899.1
303.15 K, x2 = 0.9245 | 878.8
313.15 K, x2 = 0 | 1161.3
313.15 K, x2 = 0.0467 | 1144.2
313.15 K, x2 = 0.1274 | 1115.2
313.15 K, x2 = 0.1832 | 1095.7
313.15 K, x2 = 0.2572 | 1070.4
313.15 K, x2 = 0.3291 | 1046.5
313.15 K, x2 = 0.3938 | 1025.5
313.15 K, x2 = 0.4531 | 1006.7
313.15 K, x2 = 0.5291 | 983.2
313.15 K, x2 = 0.5919 | 964.2
313.15 K, x2 = 0.6472 | 947.7
313.15 K, x2 = 0.6938 | 934.1
313.15 K, x2 = 0.7524 | 917.2
313.15 K, x2 = 0.8138 | 899.7
313.15 K, x2 = 0.8623 | 886.1
313.15 K, x2 = 0.9427 | 863.9
323.15 K, x2 = 0 | 1142.4
323.15 K, x2 = 0.0592 | 1121.4
323.15 K, x2 = 0.114 | 1102.4
323.15 K, x2 = 0.1734 | 1082.1
323.15 K, x2 = 0.2378 | 1060.7
323.15 K, x2 = 0.3139 | 1036
323.15 K, x2 = 0.3681 | 1018.8
323.15 K, x2 = 0.4244 | 1001.4
323.15 K, x2 = 0.4711 | 987.1
323.15 K, x2 = 0.5137 | 974.3
323.15 K, x2 = 0.5828 | 954
323.15 K, x2 = 0.6528 | 933.8
323.15 K, x2 = 0.725 | 913.4
323.15 K, x2 = 0.7941 | 894.2
323.15 K, x2 = 0.8529 | 878.2
323.15 K, x2 = 0.9172 | 860.9
333.15 K, x2 = 0 | 1124
333.15 K, x2 = 0.0545 | 1105.2
333.15 K, x2 = 0.1287 | 1080.2
333.15 K, x2 = 0.1831 | 1062.3
333.15 K, x2 = 0.2417 | 1043.4
333.15 K, x2 = 0.3274 | 1016.5
333.15 K, x2 = 0.3818 | 999.9
333.15 K, x2 = 0.4383 | 983
333.15 K, x2 = 0.4819 | 970.1
333.15 K, x2 = 0.5381 | 953.9
333.15 K, x2 = 0.5821 | 941.3
333.15 K, x2 = 0.6421 | 924.5
333.15 K, x2 = 0.7138 | 904.8
333.15 K, x2 = 0.7832 | 886.1
333.15 K, x2 = 0.8527 | 867.7
333.15 K, x2 = 0.9323 | 846.9
343.15 K, x2 = 0 | 1106
343.15 K, x2 = 0.0613 | 1085.5
343.15 K, x2 = 0.1248 | 1064.7
343.15 K, x2 = 0.1822 | 1046.3
343.15 K, x2 = 0.2489 | 1025.5
343.15 K, x2 = 0.3011 | 1009.5
343.15 K, x2 = 0.3719 | 988.4
343.15 K, x2 = 0.458 | 963.3
343.15 K, x2 = 0.5043 | 950.2
343.15 K, x2 = 0.5729 | 931.1
343.15 K, x2 = 0.6429 | 912
343.15 K, x2 = 0.7041 | 895.7
343.15 K, x2 = 0.7634 | 880.1
343.15 K, x2 = 0.8241 | 864.4
343.15 K, x2 = 0.8721 | 852.2
343.15 K, x2 = 0.9347 | 836.3
353.15 K, x2 = 0 | 1088.4
353.15 K, x2 = 0.0524 | 1071.3
353.15 K, x2 = 0.1139 | 1051.6
353.15 K, x2 = 0.1942 | 1026.6
353.15 K, x2 = 0.2589 | 1007
353.15 K, x2 = 0.3238 | 987.8
353.15 K, x2 = 0.4035 | 964.9
353.15 K, x2 = 0.4598 | 949.1
353.15 K, x2 = 0.5243 | 931.4
353.15 K, x2 = 0.5825 | 915.7
353.15 K, x2 = 0.6359 | 901.6
353.15 K, x2 = 0.693 | 886.8
353.15 K, x2 = 0.7749 | 865.9
353.15 K, x2 = 0.8371 | 850.3
353.15 K, x2 = 0.8689 | 842.4
353.15 K, x2 = 0.9432 | 824.2

Reference: the NIST ThermoML archive (doi:10.1016/j.jct.2005.03.019)
